In ChEMBL document CHEMBL1134443, “Sorbitol dehydrogenase inhibitors (SDIs): a new potent, enantiomeric SDI, 4-[2-1R-hydroxy-ethyl)-pyrimidin-4-yl]piperazine-1-sulfonic acid dimethylamide” (J Med Chem, 2001):

Tests used:
Rattus norvegicus = assay: In vivo inhibition of diabetic rat sciatic nerve fructose accumulation; assay type: functional
Sorbitol dehydrogenase = molecular target: T1, Sorbitol dehydrogenase (Homo sapiens, UniProt Q00796); assay: In vitro inhibitory activity against human SDH
T1 sequence (Q00796 whole entry): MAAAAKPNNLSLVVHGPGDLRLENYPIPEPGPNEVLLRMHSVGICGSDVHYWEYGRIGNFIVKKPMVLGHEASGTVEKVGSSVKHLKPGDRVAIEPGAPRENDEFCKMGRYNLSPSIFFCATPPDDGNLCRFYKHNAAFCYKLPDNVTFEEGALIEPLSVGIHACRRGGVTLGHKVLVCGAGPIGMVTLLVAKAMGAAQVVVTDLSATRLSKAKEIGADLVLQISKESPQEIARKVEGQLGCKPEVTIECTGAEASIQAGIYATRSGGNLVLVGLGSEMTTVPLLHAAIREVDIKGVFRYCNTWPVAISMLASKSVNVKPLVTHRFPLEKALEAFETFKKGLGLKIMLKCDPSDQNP

Structure (SMILES) | ED50 (Rattus norvegicus) [mg/kg] | IC50 (Sorbitol dehydrogenase) [nM]
CO[C@@H](C)c1nccc(N2CCN(S(=O)(=O)N(C)C)CC2)n1 | 9 | 486
C[C@@H](O)c1nccc(N2CCN(S(=O)(=O)N(C)C)CC2)n1 | 1.6 | 27
CN(C)S(=O)(=O)N1CCN(c2ccnc(CO)n2)CC1 | 14.1 | 246
CC(O)c1nccc(N2CCN(S(=O)(=O)N(C)C)CC2)n1 (stereo not drawn) | 2.4 | 173
